These results are taken from US5990170A, “Therapeutic use of mono and bicarboxylic acid amides active at the peripheral cannabinoid receptor” (Lifegroup S.p.A., priority 1994, dated 1999).

Usually inhibition stands for the drop in the measured response relative to a control, in per cent. A word on the solubility: it is how much of the substance goes into solution per volume.

One data set relates to RBL-2H3 cells. Put plainly: Inhibition of 3H-serotonin release induced by ADNP/DNP-HSA immunogenic stimulation in RBL-2H3 cells. Type of data set: cell-based, rat. To be noted: for inhibition at 12.5 µM: RBL-2H3, read-out: 3H-serotonin net release inhibition (%), 12.5 μM; for functional effect following receptor activation (serotonin release): result in words.
A short description of data set [1]: Solubility in water and organic solvents. To be noted: for solubility in water: result in words.
[2] abbreviates: dmso, organic solvent or mixture.
[3] abbreviates: ethanol, organic solvent or mixture.
Where [4] appears, read: Rattus norvegicus, + WIN 55,212-2 (30 μm) (Table 6).
Setting [5] is: Rattus norvegicus, - WIN (Table 6).
The mark [6] stands for this setting: Rattus norvegicus, RBL-2H3, 0.25 h, read-out: 3H-serotonin net release (%).
Setting [7] is: Rattus norvegicus, RBL-2H3, 0.25 h, read-out: ED50.

Where two headings read alike, the source gives them in different places.

On to `CCCCCCCCCCCCCCCC(=O)N[C@@H](C)[C@H](O)c1ccccc1` [Example 7, N-palmitoyl-[(1R,2S)-(-)-norephedrine]], for which the inhibition at 30 µM in the data set with RBL-2H3 cells (Rattus norvegicus, RBL-2H3, read-out: 3H-serotonin release inhibition %, 0.2% DMSO, 30 μM (Table 8)) is 93%. Further, the inhibition at 100 µM with RBL-2H3 cells (Rattus norvegicus, RBL-2H3, read-out: 3H-serotonin release inhibition %, 1% DMSO, 100 μM (Table 8)) stood at 100%. Moreover, in the data set with RBL-2H3 cells (Rattus norvegicus, RBL-2H3, read-out: EC50, concentration inhibiting by 50% the net release of 3H serotonin, 0.2% DMSO, 15 minutes release period (Table 9)), the EC50 stood at 4.7 µM. Besides, the solubility in data set [1] (setting [2]) and in data set [1] (setting [3]) was over 10000 µg/mL in each case. Besides, the solubility in water entry in data set [1] is “scarcely soluble”.

In the case of `CCCCCCCCCCCCCCCC(=O)NCCOP(=O)(O)OCC(O)CO` (stereo not shown) [Example 16, N-palmitoylethanolamine glycerophosphate], the solubility in data set [1] (setting [2]) is over 10000 µg/mL; in data set [1] (phosphate buffer, pH 7.4, aqueous buffer) it was over 1000 µg/mL. The solubility in water entry in data set [1] is on record as “scarcely soluble”.

With `CCCCC/C=C\C/C=C\C/C=C\C/C=C\CCCC(=O)O` [arachidonic acid, reference compound], the inhibition at 12.5 µM in the data set on RBL-2H3 cells (setting [4]) turned out to be 59%; with RBL-2H3 cells (setting [5]) it was 4%.

With `Cc1c(C(=O)c2cccc3ccccc23)c2cccc3c2n1[C@H](CN1CCOCC1)CO3` [WIN 55,212-2, reference compound], the “3H-serotonin release inhibition (%)” value with RBL-2H3 cells (5 μm, (+) N-(2-hydroxyethyl)-palmitoleylamide (Example 19) (Table 7)) is given as 8%; in the data set on RBL-2H3 cells (5 μm, (-) N-(2-hydroxyethyl)-palmitoleylamide (Table 7)) it was 8%; in the data set with RBL-2H3 cells (10 μm, (+) N-(2-hydroxyethyl)-palmitoleylamide (Example 19) (Table 7)), 10%; in the data set on RBL-2H3 cells (10 μm, (-) N-(2-hydroxyethyl)-palmitoleylamide (Table 7)) it was 12%; in the data set on RBL-2H3 cells (50 μm, (+) N-(2-hydroxyethyl)-palmitoleylamide (Example 19) (Table 7)) it was 24%; with RBL-2H3 cells (50 μm, (-) N-(2-hydroxyethyl)-palmitoleylamide (Table 7)) it was 76%. Besides, the “3H-serotonin release inhibition (%)” value came to 30% in the data set on RBL-2H3 cells (70 μm, (+) N-(2-hydroxyethyl)-palmitoleylamide (Example 19) (Table 7)); 96% in the data set on RBL-2H3 cells (70 μm, (-) N-(2-hydroxyethyl)-palmitoleylamide (Table 7)); 56% with RBL-2H3 cells (100 μm, (+) N-(2-hydroxyethyl)-palmitoleylamide (Example 19) (Table 7)); 98% in the data set on RBL-2H3 cells (100 μm, (-) N-(2-hydroxyethyl)-palmitoleylamide (Table 7)). The activity at 50 µM with RBL-2H3 cells (setting [6]) turned out to be 0%. Also, the IC50 amounted to 6.4 µM with RBL-2H3 cells (setting [7]) and 40 µM in the data set on RBL-2H3 cells (read-out: ED50, inhibition of 3H-serotonin release, + anandamide (12.5 μM) (Table 5), 15 min). The inhibition at 30 µM in the data set on RBL-2H3 cells (Rattus norvegicus, RBL-2H3, read-out: 3H-serotonin net release inhibition (%), 30 μM, + anandamide (12.5 μM) (Table 4)) stood at 36%; with RBL-2H3 cells (Rattus norvegicus, RBL-2H3, read-out: 3H-serotonin net release inhibition (%), 30 μM, - anandamide (Table 4)) it was 100%. Also, the “3H-serotonin net release inhibition (%)” value in the data set on RBL-2H3 cells (WIN 55,212-2 30 μm alone (DNP.HSA line, + WIN) (Table 6)) was 69%. The “functional effect following receptor activation (serotonin release)” value with RBL-2H3 cells is recorded as “able to inhibit, in a concentration-dependent way, RBL cells immunogenic activation”.

With `CCCCCCCCCCCCCCCC(=O)N(C)CCO` [Example 14, N-methyl-N-(2-hydroxyethyl)-palmitoylamide], the solubility in data set [1] (setting [2]) is over 10000 µg/mL; in data set [1] (n-octanol, organic solvent or mixture), over 10000 µg/mL. For the same compound, the solubility in water result in data set [1] was “scarcely soluble”.

For the compound `CCCCCCCCCCCCCCCC(=O)NC(CO)CO` [Example 15, 2-(N-palmitoylamino)-1,3-propandiol], the solubility in data set [1] (setting [2]) and in data set [1] (setting [3]) was over 5000 µg/mL throughout. The solubility in water result in data set [1] is “scarcely soluble”.

Take `CCCCCc1cc(O)c2c(c1)OC(C)(C)[C@@H]1CC=C(C)C[C@@H]21` [Δ8-THC, Δ8-tetrahydrocannabinol, reference compound]: the activity at 25 µM in the data set on RBL-2H3 cells (setting [6]) came to 0%. Also, the IC50 in the data set with RBL-2H3 cells (setting [7]) is 5 µM. The inhibition at 25 µM in the data set on RBL-2H3 cells (Rattus norvegicus, RBL-2H3, read-out: 3H-serotonin net release inhibition (%), 25 μM, - anandamide (Table 4)) stood at 100%. In the data set with RBL-2H3 cells, the “functional effect following receptor activation (serotonin release)” value is “able to inhibit, in a concentration-dependent way, RBL cells immunogenic activation”.

For `O=C(/C=C/CCCCCCCCC(=O)NCCCCO)NCCCCO` [Example 17, N,N'-bis(4-hydroxybutyl)-trans-2-dodecendiamide], the solubility in data set [1] (setting [2]) is over 5000 µg/mL. For the same compound, the solubility in water result in data set [1] is reported as “scarcely soluble”.

Take `O=C(/C=C/CCCCCCCCC(=O)N1CCOCC1)N1CCOCC1` [Example 38, 1,10-bis-morpholinylcarbonyl-trans-1-decene]: the solubility in data set [1] (setting [2]) and in data set [1] (setting [3]) was over 10000 µg/mL in each case. Moreover, in data set [1], the solubility in water entry is recorded as “scarcely soluble”.

In the case of `NCCO` [ethanolamine, reference compound], the inhibition at 12.5 µM with RBL-2H3 cells (setting [4]) worked out at 72%; in the data set on RBL-2H3 cells (setting [5]), 6%.

As to `CCCCC/C=C\C/C=C\CCCCCCCC(=O)NCCO` [N-(2-hydroxyethyl)-linoleylamide, reference compound], in the data set on RBL-2H3 cells (setting [6]), the activity at 100 µM is 100%.
